Measurements as given in article PMC5915086 (Oncotarget, 2018).
“Also recorded” adds a separate entry of the source.

Columns and labels:
[1] = tested on: BAF155 dimethylation in KMS-27 cells; experiment: BAF155 dimethylation in MM cells, western blotting; assay type: cell-based, human
Method: (§4) The lysates were separated by SDS-polyacrylamide gel electrophoresis and transferred to a nitrocellulose membrane using an iBlot Transfer Stack and iBlot Gel Transfer Device (Thermo Fisher Scientific, Waltham, MA, USA). […] The membrane was incubated with ImmunoStar LD (Wako Pure Chemical Industries, Osaka, Japan), and signals were detected with an ImageQuant LAS-3000 imaging system (Fujifilm, Tokyo, Japan).

[2] = tested on: BAF155 dimethylation in U266B1 cells; experiment: BAF155 dimethylation in MM cells, western blotting; assay type: cell-based, human
Method: as §4

PRMT3 = target: T1, PRMT3 (Homo sapiens, UniProt O60678); experiment: PRMT3 methyltransferase scintillation proximity assay; assay type: biochemical
T1 construct: 106–426 (within the); made in house
T1 sequence (O60678 211-531 limits assumed): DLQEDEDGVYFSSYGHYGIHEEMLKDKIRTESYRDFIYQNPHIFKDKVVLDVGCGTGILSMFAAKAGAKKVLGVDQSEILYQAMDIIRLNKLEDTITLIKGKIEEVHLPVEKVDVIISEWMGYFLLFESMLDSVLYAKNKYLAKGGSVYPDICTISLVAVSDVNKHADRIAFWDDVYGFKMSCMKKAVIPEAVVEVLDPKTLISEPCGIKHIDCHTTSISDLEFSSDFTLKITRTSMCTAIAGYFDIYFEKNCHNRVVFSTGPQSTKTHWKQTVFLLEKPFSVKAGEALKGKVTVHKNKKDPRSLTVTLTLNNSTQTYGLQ
Method: (§5) In the scintillation proximity assay (SPA), specific amounts of enzyme and biotinylated peptide substrate were mixed with the compound and the reaction was initiated by adding SAM. IC50 values were measured at the apparent Km concentrations of the substrate and SAM. The reaction was quenched by adding an equal volume of 7.5 M guanidine hydrochloride, and the reaction product was measured by SPA using FlashPlate Plus and TopCount NXT HTS plate reader (both from Perkin Elmer Life Sciences).
(§6) The selectivity assay was performed as previously described [31]. The effect of test compounds on the methyltransferase activities of Euchromatic histone-lysine N-methyltransferase 2 (G9a), G9a-like protein (GLP), Suppressor of variegation 3-9 homolog (SUV39H)1, SUV39H2, SUV420H1, SUV420H2, SET domain (SETD)2, SETD8, SETD bifurcated 1 (SETDB1), SETD7, Mixed-lineage leukemia (MLL)1 trimeric complex, MLL3 pentameric complex, Enhancer of zeste homolog (EZH)2 trimeric complex, PRMT1, PRMT3, PRMT4, PRMT5/Methylosome protein (MEP)50 complex, PRMT6, PRMT7, PRMT8, PRMT9, PR domain zinc finger protein (PRDM)9, SET and MYND domain-containing (SMYD)2, SMYD3, and DNA methyltransferase (DNMT)1 was assessed by monitoring the incorporation of a tritium-labeled methyl group into substrates with the scintillation proximity assay [32]. […]

PRMT9 = target: T2, PRMT9 (Homo sapiens, UniProt Q6P2P2); experiment: PRMT9 methyltransferase scintillation proximity assay; assay type: biochemical
T2 construct: 1–845; made in house
T2 sequence (Q6P2P2 whole entry): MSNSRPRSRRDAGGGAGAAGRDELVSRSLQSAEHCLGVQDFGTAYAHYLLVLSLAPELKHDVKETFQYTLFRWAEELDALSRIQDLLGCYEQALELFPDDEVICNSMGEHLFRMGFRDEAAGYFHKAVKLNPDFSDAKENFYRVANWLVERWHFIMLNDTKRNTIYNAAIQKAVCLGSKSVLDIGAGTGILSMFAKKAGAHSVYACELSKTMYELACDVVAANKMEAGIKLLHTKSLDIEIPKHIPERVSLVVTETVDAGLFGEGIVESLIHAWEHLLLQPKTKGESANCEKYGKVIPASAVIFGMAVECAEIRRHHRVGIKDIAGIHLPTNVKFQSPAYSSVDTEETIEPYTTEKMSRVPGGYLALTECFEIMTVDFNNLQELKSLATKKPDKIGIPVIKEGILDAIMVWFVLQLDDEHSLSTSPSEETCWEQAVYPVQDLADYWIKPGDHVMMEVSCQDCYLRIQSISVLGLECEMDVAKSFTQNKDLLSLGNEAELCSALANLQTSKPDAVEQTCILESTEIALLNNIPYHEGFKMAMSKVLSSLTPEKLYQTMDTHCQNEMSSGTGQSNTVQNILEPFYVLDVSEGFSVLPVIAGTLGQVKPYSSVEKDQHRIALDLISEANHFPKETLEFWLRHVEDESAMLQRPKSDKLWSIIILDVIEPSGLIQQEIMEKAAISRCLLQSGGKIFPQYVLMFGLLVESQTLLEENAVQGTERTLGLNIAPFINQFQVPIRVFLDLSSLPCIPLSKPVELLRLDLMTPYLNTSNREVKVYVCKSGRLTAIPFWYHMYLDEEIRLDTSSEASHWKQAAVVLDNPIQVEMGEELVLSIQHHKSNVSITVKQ
Method: as §5

[3] = tested on: BAF155 dimethylation in NCI-H929 cells; experiment: BAF155 dimethylation in MM cells, western blotting; assay type: cell-based, human
Method: as §4

PRMT7 = target: T3, PRMT7 (Homo sapiens, UniProt Q9NVM4); experiment: PRMT7 methyltransferase scintillation proximity assay; assay type: biochemical
T3 construct: 1–692; made in house
T3 sequence (Q9NVM4 whole entry): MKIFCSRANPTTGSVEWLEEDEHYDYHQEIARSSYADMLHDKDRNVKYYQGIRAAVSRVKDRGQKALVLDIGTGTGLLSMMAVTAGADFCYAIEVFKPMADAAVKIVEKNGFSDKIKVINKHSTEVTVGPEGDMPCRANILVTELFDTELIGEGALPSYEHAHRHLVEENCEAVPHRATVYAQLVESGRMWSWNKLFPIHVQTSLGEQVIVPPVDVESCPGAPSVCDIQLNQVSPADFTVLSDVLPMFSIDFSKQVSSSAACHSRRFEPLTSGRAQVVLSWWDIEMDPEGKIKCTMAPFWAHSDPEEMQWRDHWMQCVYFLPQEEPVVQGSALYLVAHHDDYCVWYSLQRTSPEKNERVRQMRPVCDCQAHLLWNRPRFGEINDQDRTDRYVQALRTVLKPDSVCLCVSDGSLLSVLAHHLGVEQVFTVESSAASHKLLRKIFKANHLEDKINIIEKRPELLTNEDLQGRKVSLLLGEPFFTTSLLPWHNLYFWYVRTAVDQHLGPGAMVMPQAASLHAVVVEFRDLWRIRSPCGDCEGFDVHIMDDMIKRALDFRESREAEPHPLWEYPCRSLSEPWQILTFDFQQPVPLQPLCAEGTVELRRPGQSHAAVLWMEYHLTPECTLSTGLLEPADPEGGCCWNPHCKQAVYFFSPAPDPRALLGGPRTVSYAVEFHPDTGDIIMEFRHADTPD
Method: as §5, §6

PRMT6 = target: T4, PRMT6 (Homo sapiens, UniProt Q96LA8); experiment: PRMT6 methyltransferase scintillation proximity assay; assay type: biochemical
T4 construct: 1–375; made in house
T4 sequence (Q96LA8 whole entry): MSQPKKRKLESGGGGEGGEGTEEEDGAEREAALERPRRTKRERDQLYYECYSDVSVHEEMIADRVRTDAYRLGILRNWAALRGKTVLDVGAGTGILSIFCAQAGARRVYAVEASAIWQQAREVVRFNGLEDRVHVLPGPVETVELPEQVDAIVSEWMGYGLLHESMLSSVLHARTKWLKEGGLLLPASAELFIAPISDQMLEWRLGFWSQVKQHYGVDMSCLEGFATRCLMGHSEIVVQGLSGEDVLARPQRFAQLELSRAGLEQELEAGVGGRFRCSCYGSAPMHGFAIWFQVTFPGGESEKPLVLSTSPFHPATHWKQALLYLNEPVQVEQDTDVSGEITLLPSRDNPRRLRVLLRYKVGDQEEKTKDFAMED
Method: as §5, §6

[4] = tested on: dimethylation of MED12 (PRMT4 substrate); experiment: MED12 dimethylation in HEK293 cells, western blotting; assay type: cell-based, human; conditions: 3 days
Method: (§7) Graphs represent nonlinear curve fits of dimethyl-BAF155 and dimethyl-MED12 signal intensities normalized to total BAF155 or MED12, respectively. Data represent mean ± SEM of two independent experiments prepared in triplicate.
(§8) After incubation for 3 min at room temperature, sodium dodecyl sulfate (SDS) was added to a final concentration of 1%. […] Blots were blocked for 1 h in blocking buffer composed of 5% milk and 0.1% Tween 20 in phosphate-buffered saline (PBS) and then incubated overnight at 4°C in blocking buffer containing primary antibodies against MED12 (1:1000) (Abnova, Taipei, Taiwan; H00009968-A01), MED12 with asymmetrically dimethylated arginine (1:1000; gift from Dr. Mark Bedford and Cell Signaling Technology, Danvers, MA, USA), BAF155 (1:500) (Santa Cruz Biotechnology, Santa Cruz, CA, USA; sc32763), or R1064-dimethylated BAF155 (1:2000) (Millipore; ABE1339). […] The signal was detected on an Odyssey scanner (LI-COR Biosciences) at 800 and 700 nm.

[5] = target: T5, PRMT5/Methylosome protein (MEP)50 complex (Homo sapiens, UniProt O14744); experiment: PRMT5 methyltransferase scintillation proximity assay; assay type: biochemical
T5 construct: 1–637 (PRMT5); made in house
T5 sequence (O14744 whole entry): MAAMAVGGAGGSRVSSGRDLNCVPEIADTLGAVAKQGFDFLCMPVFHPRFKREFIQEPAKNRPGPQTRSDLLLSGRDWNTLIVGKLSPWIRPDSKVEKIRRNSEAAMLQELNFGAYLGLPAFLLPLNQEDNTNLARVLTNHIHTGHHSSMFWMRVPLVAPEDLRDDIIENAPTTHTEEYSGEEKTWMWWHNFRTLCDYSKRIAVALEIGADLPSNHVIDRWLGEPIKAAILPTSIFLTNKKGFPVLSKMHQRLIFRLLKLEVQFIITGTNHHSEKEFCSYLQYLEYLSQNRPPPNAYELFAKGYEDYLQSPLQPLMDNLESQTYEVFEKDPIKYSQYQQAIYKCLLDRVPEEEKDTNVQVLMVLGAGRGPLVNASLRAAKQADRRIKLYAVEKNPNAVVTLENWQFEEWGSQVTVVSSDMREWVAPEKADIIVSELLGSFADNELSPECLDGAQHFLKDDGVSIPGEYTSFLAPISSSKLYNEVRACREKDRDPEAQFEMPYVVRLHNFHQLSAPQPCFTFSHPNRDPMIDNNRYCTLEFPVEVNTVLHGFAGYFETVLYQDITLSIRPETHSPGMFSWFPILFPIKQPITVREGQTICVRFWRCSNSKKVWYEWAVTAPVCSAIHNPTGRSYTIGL
T5 sequence (Q9BQA1 whole entry partner): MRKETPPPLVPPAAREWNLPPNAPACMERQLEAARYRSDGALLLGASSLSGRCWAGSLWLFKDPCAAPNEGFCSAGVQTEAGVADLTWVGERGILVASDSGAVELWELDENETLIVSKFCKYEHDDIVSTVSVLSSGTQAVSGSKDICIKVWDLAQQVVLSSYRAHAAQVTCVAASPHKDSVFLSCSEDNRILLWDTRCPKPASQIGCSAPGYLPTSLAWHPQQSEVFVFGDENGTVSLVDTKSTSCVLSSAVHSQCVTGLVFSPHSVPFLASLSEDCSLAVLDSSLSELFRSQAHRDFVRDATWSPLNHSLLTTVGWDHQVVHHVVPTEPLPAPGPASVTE
Method: as §5, §6

PRMT1 = target: T6, PRMT1 (Homo sapiens, UniProt Q99873); experiment: PRMT1 methyltransferase scintillation proximity assay; assay type: biochemical
T6 construct: 30–371; made in house
T6 sequence (Q99873 30-371): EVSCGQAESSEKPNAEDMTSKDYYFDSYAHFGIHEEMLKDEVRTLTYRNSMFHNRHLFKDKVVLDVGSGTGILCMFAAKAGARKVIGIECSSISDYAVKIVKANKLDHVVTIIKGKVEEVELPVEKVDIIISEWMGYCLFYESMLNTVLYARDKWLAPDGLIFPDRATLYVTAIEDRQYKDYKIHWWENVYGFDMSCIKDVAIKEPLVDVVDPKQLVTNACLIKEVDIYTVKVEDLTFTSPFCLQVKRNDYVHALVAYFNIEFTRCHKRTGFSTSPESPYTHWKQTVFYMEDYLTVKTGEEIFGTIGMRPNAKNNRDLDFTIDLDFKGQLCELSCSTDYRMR
Method: as §5

NCI-H929 cells = experiment: Cell cycle analysis by flow cytometry (DNA content); assay type: cell-based, human; conditions: for G1 cell fraction / G2-M cell fraction / S cell fraction / sub-G1 cell fraction: NCI-H929, 1 μM, 72 h
Method: To measure DNA content for cell cycle distribution analysis, cells were incubated with 70% ethanol/PBS (v/v) overnight. Fixed cells were stained with propidium iodide and analyzed on a FACS LSRFortessa system (BD Biosciences, Franklin Lakes, NJ, USA).

PRMT8 = target: T7, PRMT8 (Homo sapiens, UniProt Q9NR22); experiment: PRMT8 methyltransferase scintillation proximity assay; assay type: biochemical
T7 construct: 1–394; made in house
T7 sequence (Q9NR22 whole entry): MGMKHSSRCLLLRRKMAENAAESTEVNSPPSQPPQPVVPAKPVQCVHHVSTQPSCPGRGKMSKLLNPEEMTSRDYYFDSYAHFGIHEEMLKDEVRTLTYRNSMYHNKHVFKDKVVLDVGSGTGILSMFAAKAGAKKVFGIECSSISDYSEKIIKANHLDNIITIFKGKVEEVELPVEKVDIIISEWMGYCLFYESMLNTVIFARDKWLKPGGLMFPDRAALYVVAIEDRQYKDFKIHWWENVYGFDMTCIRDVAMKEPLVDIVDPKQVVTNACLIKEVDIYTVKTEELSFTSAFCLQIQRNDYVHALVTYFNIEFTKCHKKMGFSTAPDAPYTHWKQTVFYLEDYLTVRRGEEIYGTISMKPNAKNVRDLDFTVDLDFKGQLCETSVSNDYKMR
Method: as §5, §6

[6] = tested on: dimethylation of BAF155 (PRMT4 substrate); experiment: BAF155 dimethylation in HEK293 cells, western blotting; assay type: cell-based, human; conditions: 3 days
Method: as §7, §8

PRMT4 [7] = target: T8, PRMT4 (Homo sapiens, UniProt Q86X55); experiment: PRMT4 methyltransferase scintillation proximity assay; assay type: biochemical; parameters: 1–608; made in house
T8 sequence (Q86X55 1-608): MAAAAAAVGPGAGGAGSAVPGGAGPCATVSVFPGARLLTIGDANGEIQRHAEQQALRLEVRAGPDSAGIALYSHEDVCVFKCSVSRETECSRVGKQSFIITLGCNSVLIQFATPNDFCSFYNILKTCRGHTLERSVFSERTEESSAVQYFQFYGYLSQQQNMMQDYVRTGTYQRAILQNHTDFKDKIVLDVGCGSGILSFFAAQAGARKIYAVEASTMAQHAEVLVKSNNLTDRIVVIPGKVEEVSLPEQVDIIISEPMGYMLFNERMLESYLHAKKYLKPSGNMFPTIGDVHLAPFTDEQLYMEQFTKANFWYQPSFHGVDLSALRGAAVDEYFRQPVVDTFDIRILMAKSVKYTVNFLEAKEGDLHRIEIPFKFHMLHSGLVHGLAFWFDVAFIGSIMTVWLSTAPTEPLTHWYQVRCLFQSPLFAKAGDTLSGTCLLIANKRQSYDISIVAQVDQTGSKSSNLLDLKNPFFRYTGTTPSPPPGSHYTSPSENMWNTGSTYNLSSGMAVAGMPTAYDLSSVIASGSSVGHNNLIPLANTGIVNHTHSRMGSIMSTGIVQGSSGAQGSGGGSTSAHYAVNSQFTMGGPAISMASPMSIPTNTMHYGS
Method: as §5

[8] = tested on: 24 protein lysine methyltransferases and DNA methyltransferases; experiment: Selectivity assay against other methyltransferases; assay type: biochemical; conditions: for inhibition of other methyltransferases: tested at 1 and 10 μM
Method: The selectivity assay was performed as previously described [31]. The effect of test compounds on the methyltransferase activities of Euchromatic histone-lysine N-methyltransferase 2 (G9a), G9a-like protein (GLP), Suppressor of variegation 3-9 homolog (SUV39H)1, SUV39H2, SUV420H1, SUV420H2, SET domain (SETD)2, SETD8, SETD bifurcated 1 (SETDB1), SETD7, Mixed-lineage leukemia (MLL)1 trimeric complex, MLL3 pentameric complex, Enhancer of zeste homolog (EZH)2 trimeric complex, PRMT1, PRMT3, PRMT4, PRMT5/Methylosome protein (MEP)50 complex, PRMT6, PRMT7, PRMT8, PRMT9, PR domain zinc finger protein (PRDM)9, SET and MYND domain-containing (SMYD)2, SMYD3, and DNA methyltransferase (DNMT)1 was assessed by monitoring the incorporation of a tritium-labeled methyl group into substrates with the scintillation proximity assay [32]. Briefly, a 10-μl reaction containing ^3H-SAM and substrate at concentrations close to the apparent Km values for each enzyme was prepared. Two concentrations (1 and 10 μM) of compound were tested. The reactions were quenched with 10 μl of 7.5 M guanidine hydrochloride; 180 μl of 20 mM Tris buffer (pH 8.0) were added, and the mixture was transferred to a 96-well FlashPlate followed by incubation for 1 h. The counts per minute (CPM) was measured on a TopCount plate reader; the CPM in the absence of compound or enzyme was defined as 100% activity and background (0%), respectively, for each dataset.

KMS-26 cells = experiment: MM cell growth, CellTiter-Glo, 6 days; assay type: cell-based, human; conditions: KMS-26, 6 days
Method: (§1) Red dots indicate MM cell lines. […] Data are presented as mean ± standard deviation (n = 3). IC50 values were calculated by nonlinear regression analysis of % inhibition. […] ATP concentration was calculated based on chemiluminescence values relative to the 0 nM value (control) in each cell line. PRMT4 mRNA expression levels in MM cells were determined with the Ion Ampliseq transcriptome assay and were normalized to that of glyceraldehyde 3-phosphate dehydrogenase (GAPDH) in each cell line.
(§2) Chemiluminescence was measured with a microplate reader. […] K562 cells were cultured in RPMI 10% FBS.

KMS-11 cells = experiment: MM cell growth, CellTiter-Glo, 6 days; assay type: cell-based, human; conditions: KMS-11, 6 days
Method: as §1, §2

KMS-12PE cells = experiment: MM cell growth, CellTiter-Glo, 6 days; assay type: cell-based, human
Method: as §1, §2

KMS-20 cells = experiment: MM cell growth, CellTiter-Glo, 6 days; assay type: cell-based, human; conditions: KMS-20, 6 days
Method: as §1, §2

U266B1 cells = experiment: MM cell growth, CellTiter-Glo, 6 days; assay type: cell-based, human; conditions: U266B1, 6 days
Method: as §1, §2

MM.1R cells = experiment: MM cell growth, CellTiter-Glo, 6 days; assay type: cell-based, human
Method: as §1, §2

KMS-28BM cells = experiment: MM cell growth, CellTiter-Glo, 6 days; assay type: cell-based, human
Method: as §1, §2

KMS-27 cells = experiment: MM cell growth, CellTiter-Glo, 6 days; assay type: cell-based, human; conditions: KMS-27, 6 days
Method: as §1, §2

RPMI8226 cells = experiment: MM cell growth, CellTiter-Glo, 6 days; assay type: cell-based, human; conditions: RPMI8226, 6 days
Method: as §1, §2

MM.1S cells = experiment: MM cell growth, CellTiter-Glo, 6 days; assay type: cell-based, human
Method: as §1, §2

KMS-12BM cells = experiment: MM cell growth, CellTiter-Glo, 6 days; assay type: cell-based, human
Method: as §1, §2

PRMT4 [9] = target: T8, PRMT4; experiment: Differential static light scattering (DSLS) binding; conditions: at 80 μM
Method: DSLS was performed as previously described [34] using 100 mM HEPES (pH 7.5), 150 mM NaCl, 3% DMSO, and 0.4 mg ml^−1 (6 μM) protein in a 10-μl reaction volume.

K562 cells = experiment: K562 cell viability, SYTOX Blue flow cytometry; assay type: cell-based; conditions: 3 μM TP-064, 5 μM SGC0946, 6 days; preliminary experiments
Method: as §2
growth. […] The inhibitors were topped up after
3 days. After 6 days, cells were stained with SYTOX Blue dead cell stain and the number of viable cells was determined by flow cytometry.
Data are presented as mean ± SD (n = 5). The predicted additive effect was calculated as Fa + Fb × (1 − Fa), where Fa and Fb are the
(§3) (1 picture or pasted object on this page, not shown here)

[10] = tested on: panel of 89 (69 solid and 20 hematologic) cancer cell lines; experiment: Cell panel viability, CellTiter-Glo, 3 days; assay type: cell-based, human; conditions: 3 μM
Method: In addition, to further validate the role of PRMT4 in MM cell growth, we performed PRMT4 knockdown in NCI-H929 cells and observed PRMT4 knockdown-induced growth inhibition (Supplementary Figure 5). Thus, pharmacological inhibition of PRMT4 by small molecules may be a therapeutic option for some MM treatment.
as §1, §2

[11] = tested on: acute myeloid leukemia, colon cancer, or lung cancer cell lines; experiment: Proliferation of non-MM cancer cell lines, 6 days; assay type: cell-based, human
Method: as §2
6 days. Relative ATP concentration was calculated based on chemiluminescence relative to the 0 nM value (control). Data are presented as
mean ± standard deviation (n = 3).
as §3

PRMT4 [12] = target: T8, PRMT4; experiment: Substrate competition assay (mechanism of action); assay type: biochemical; parameters: 1–608; made in house; conditions: versus SAM and substrate peptide
Method: The substrate competition assays were performed by measuring IC50 values at various concentrations of one substrate (e.g., peptide) and at saturating concentrations of the other (e.g., SAM) and vice versa, as previously described.

SMILES: COCCN1CCC(c2cc(CN(C)C(=O)c3cccc(Oc4ccccc4)c3)ccn2)CC1 [TP-064N, N-((2-(1-(2-methoxyethyl)piperidin-4-yl)pyridin-4-yl)methyl)-N-methyl-3-phenoxybenzamide]
- effect on dimethyl-BAF155 level ([1]; KMS-27, 72 h): no effect
- effect on dimethyl-BAF155 level ([2]; U266B1, 72 h): no effect
- IC50 (PRMT3): > 10000 nM
- IC50 (PRMT9): > 10000 nM
- effect on dimethyl-BAF155 level ([3]; NCI-H929, 72 h): no effect
- IC50 (PRMT7): > 10000 nM
- IC50 (PRMT6): > 10000 nM
- inhibition of MED12 dimethylation ([4]; up to 10 μM): did not inhibit
- IC50 [5]: > 10000 nM
- IC50 (PRMT1): > 10000 nM
- effect on cell cycle (NCI-H929 cells; NCI-H929): no/little effect
- G1 cell fraction (NCI-H929 cells): 53.2%
- G2-M cell fraction (NCI-H929 cells): 24.1%
- S cell fraction (NCI-H929 cells): 13.2%
- sub-G1 cell fraction (NCI-H929 cells): 5.14%
- IC50 (PRMT8): > 10000 nM
- inhibition of BAF155 dimethylation ([6]; up to 10 μM): did not inhibit
- IC50 (PRMT4 [7]): 2500 ± 600 nM
- IC50 [8]: > 10000 nM
- inhibition of other methyltransferases [8]: completely inactive

SMILES: CNCCN1CCC(c2cc(CN(C)C(=O)c3cccc(Oc4ccccc4)c3)ccn2)CC1 [TP-064, N-methyl-N-((2-(1-(2-(methylamino)ethyl)piperidin-4-yl)pyridin-4-yl)methyl)-3-phenoxybenzamide]
- Growth at 3 μM (%) (KMS-26 cells): -19.5%
- Growth at 3 μM (%) (KMS-11 cells): -17.2%
- Growth at 3 μM (%) (KMS-12PE cells): -4.4%
- Growth at 3 μM (%) (KMS-20 cells): -22.5%
- Growth at 3 μM (%) (U266B1 cells): -24.4%
- Growth at 3 μM (%) (MM.1R cells): -37.8%
- Growth at 3 μM (%) (KMS-28BM cells): -24.1%
- Growth at 3 μM (%) (KMS-27 cells): -17.2%
- IC50 (RPMI8226 cells; Homo sapiens, RPMI-8226, 144 h): 886 nM
- Growth at 3 μM (%) (RPMI8226 cells): -58.3%
- Growth at 3 μM (%) (MM.1S cells): -31.0%
- Growth at 3 μM (%) (KMS-12BM cells): -8.2%
- IC50 ([1]; Homo sapiens, 72 h, KMS-27, 3 days, read-out: methyl / total BAF155 IC50): 400 nM
- increase of aggregation temperature (Tagg), DSLS (PRMT4 [9]): about 6 °C
- IC50 ([2]; Homo sapiens, 72 h, U266B1, 3 days, read-out: methyl / total BAF155 IC50): 486 nM
- IC50 (PRMT3): > 10000 nM
- IC50 (PRMT9): > 10000 nM
- IC50 ([3]; Homo sapiens, 72 h, NCI-H929, 3 days, read-out: methyl / total BAF155 IC50): 716 nM
- cytotoxic response of K562 cells (K562 cells): weak response
- IC50 (PRMT7): > 10000 nM
- IC50 (PRMT6): 1300 ± 400 nM
- IC50 ([4]; Homo sapiens, 72 h): 43 ± 10 nM
- IC50 [5]: > 10000 nM
- growth inhibition in cancer cell panel [10]: inhibited the growth of a subset of MM cell lines
- anti-proliferative activity [11]: did not exhibit; also recorded: no effect
- G1 cell fraction (NCI-H929 cells): 63.5%
- G2-M cell fraction (NCI-H929 cells): 20.2%
- S cell fraction (NCI-H929 cells): 7.89%
- sub-G1 cell fraction (NCI-H929 cells): 5.73%
- IC50 (PRMT8): 8100 ± 600 nM
- IC50 ([6]; Homo sapiens, 72 h): 340 ± 30 nM
- IC50 [8]: > 10000 nM
- inhibition of other methyltransferases [8]: did not inhibit
- mode of inhibition (PRMT4 [12]): non-competitive
